Measured values published in ChEMBL document CHEMBL1221387, “Prenylflavonoids from Glycyrrhiza uralensis and their protein tyrosine phosphatase-1B inhibitory activities” (Bioorg Med Chem Lett, 2010).

Molecular target: T1, Tyrosine-protein phosphatase non-receptor type 1 (Homo sapiens, UniProt P18031)
T1 sequence (P18031 whole entry): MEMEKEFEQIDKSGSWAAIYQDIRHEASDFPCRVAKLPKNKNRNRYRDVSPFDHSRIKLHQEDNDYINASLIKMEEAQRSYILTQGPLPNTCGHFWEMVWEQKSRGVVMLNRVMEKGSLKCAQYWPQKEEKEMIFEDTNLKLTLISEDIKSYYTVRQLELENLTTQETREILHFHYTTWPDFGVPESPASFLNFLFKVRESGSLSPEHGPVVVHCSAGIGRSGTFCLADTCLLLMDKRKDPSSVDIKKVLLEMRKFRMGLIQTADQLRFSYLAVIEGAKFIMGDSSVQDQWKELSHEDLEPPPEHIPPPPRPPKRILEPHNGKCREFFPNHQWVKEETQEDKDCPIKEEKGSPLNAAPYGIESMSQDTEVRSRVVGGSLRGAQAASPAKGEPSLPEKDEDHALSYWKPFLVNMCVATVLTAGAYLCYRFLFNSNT
Assay: Inhibition of human recombinant PTP1B assessed as p-nitorphenol production after 30 mins

| IC50 [µM] | Compound |
| --- | --- |
| 4.4 | CCCCCCCCCCCCCCCC(=O)C1=C(O)[C@@H](CO)OC1=O |
| 58.7 | CC(C)=CCc1cc(-c2coc3cc(O)cc(O)c3c2=O)cc(O)c1O [GLYCYRRHISOFLAVONE] |
| 54.5 | CC(C)=CCc1cc2c(=O)cc(-c3ccc(O)cc3)oc2cc1O [LICOFLAVANONE A] |
| 25.5 | COc1c(CC=C(C)C)c(O)cc(O)c1-c1oc2cc(O)ccc2c1C [GLYCYBENZOFURAN] |
| 27.9 | COc1cc(O)cc2occ(-c3cc(O)c(O)c(CC=C(C)C)c3)c(=O)c12 [GLISOFLAVONE] |
| 71.2 | COc1c(CC=C(C)C)c(O)cc2oc(-c3ccc(O)cc3O)cc12 [LICOCOUMARONE] |
| 184 | COc1c(CC=C(C)C)c(O)cc2oc(=O)c(-c3ccc(O)cc3O)cc12 [GLYCYCOUMARIN] |
